Laboratory results from ChEMBL document CHEMBL5335769, “Design, synthesis and biological evaluation of novel diarylacylhydrazones derivatives for the efficient treatment of idiopathic pulmonary fibrosis” (Eur J Med Chem, 2023).
Values after ≈ are worked out from the molar mass of the structure shown. Active and inactive are the calls of the source. No cut-off for these calls is given here.

Key:
[1] = system: Mus musculus; experiment: Anti-fibrotic activity in bleomycin-induced C57BL/6 mouse model of pulmonary fibrosis assessed as reduction in vimentin level at 60 mg/kg, po pretreated with bleomycin followed by compound addition once daily on day 7 to 14; type: functional, organism-based; conditions: time 7.0 day
[2] = system: Mus musculus; experiment: Anti-fibrotic activity in bleomycin-induced C57BL/6 mouse model of pulmonary fibrosis assessed as decrease in collagen level by measuring hydroxyproline level at 30 to 60 mg/kg, po pretreated with bleomycin for 1 day followed by compound addition once daily for 21 days; type: functional, organism-based; conditions: dose 30-60 mg/kg, time 21.0 day
[3] = system: Mus musculus; experiment: Anti-fibrotic activity PO dosed bleomycin-induced C57BL/6 mouse model of pulmonary fibrosis assessed as reduction in lung to body weight ratio pretreated with bleomycin for 1 day followed by compound addition once daily for 22 days; type: functional, organism-based; conditions: dose 30-60 mg/kg, time 22.0 day
[4] = system: Mus musculus; experiment: Anti-fibrotic activity in bleomycin-induced C57BL/6 mouse model of pulmonary fibrosis assessed as reduction in collagen hyperplasia at 60 mg/kg, po pretreated with bleomycin followed by compound addition once daily on day 7 to 14 by Masson's trichrome staining based analysis; type: functional, organism-based; conditions: time 7.0 day
[5] = Half life in Sprague-Dawley rat at 2 mg/kg, iv measured upto 24 hrs; type: ADME, organism-based; conditions: in vivo
[6] = AUC(0 to infinity) in Sprague-Dawley rat at 20 mg/kg, po measured upto 24 hrs; type: ADME, organism-based; design: dose 20 mg/kg, time < 24 hrs, route po; conditions: in vivo
[7] = system: Mus musculus; experiment: Anti-fibrotic activity in bleomycin-induced C57BL/6 mouse model of pulmonary fibrosis assessed as reduction in collagen deposition at 30 to 60 mg/kg, po pretreated with bleomycin for 1 day followed by compound addition once daily for 22 days by Masson't trichrome staining based analysis; type: functional; design: scale not given: the % may be the effect or the level left; conditions: dose 30-60 mg/kg, time 22 day
[8] = system: Mus musculus; experiment: Anti-fibrotic activity in bleomycin-induced C57BL/6 mouse model of pulmonary fibrosis assessed as […] in E-Cadherin expression level at 30 to 60 mg/kg, po pretreated with bleomycin for 1 day followed by compound addition once daily for 22 days by Western blot analysis; type: functional, organism-based; conditions: dose 30-60 mg/kg, time 22.0 day
[9] = Cmax in Sprague-Dawley rat at 20 mg/kg, po measured upto 24 hrs; type: ADME, organism-based; design: time < 24 hrs, dose 20 mg/kg, route po; conditions: in vivo
[10] = system: Mus musculus; experiment: Anti-fibrotic activity in bleomycin-induced C57BL/6 mouse model of pulmonary fibrosis assessed as reduction in vimentin expression level at 30 to 60 mg/kg, po pretreated with bleomycin for 1 day followed by compound addition once daily for 22 days by Western blot analysis; type: functional, organism-based; conditions: dose 30-60 mg/kg, time 22.0 day
[11] = system: NIH3T3; experiment: Antiproliferative activity against NIH3T3 cells at 10 uM after 72 hrs by MTT assay; type: functional, Mus musculus
[12] = system: Mus musculus; experiment: Anti-fibrotic activity in bleomycin-induced C57BL/6 mouse model of pulmonary fibrosis assessed as reduction in p-STAT3 protein level at 30 to 60 mg/kg, po pretreated with bleomycin for 1 day followed by compound addition once daily for 22 days by Western blot analysis; type: functional, organism-based; conditions: dose 30-60 mg/kg, time 22.0 day
[13] = system: Mus musculus; experiment: Anti-fibrotic activity in bleomycin-induced C57BL/6 mouse model of pulmonary fibrosis assessed as reduction in p-STAT3 level at 60 mg/kg, po pretreated with bleomycin followed by compound addition once daily on day 7 to 14; type: functional, organism-based; conditions: time 7.0 day
[14] = system: NIH3T3; experiment: Inhibition of TGF-beta1 induced NIH-3T3 cells activation assessed as reduction in alpha-SMA level at 6 uM preincubated with TGF-beta1 for 1 hr followed by compound addition and measured after 24 hrs by DAPI staining based fluorescence microscopic analysis; type: functional, cell-based; conditions: Mus musculus
[15] = system: Mus musculus; experiment: Anti-fibrotic activity in bleomycin-induced C57BL/6 mouse model of pulmonary fibrosis assessed as mouse survival rate at 60 mg/kg, po pretreated with bleomycin for 1 day followed by compound addition once daily for 22 days; type: functional, organism-based; conditions: time 22.0 day
[16] = system: Mus musculus; experiment: Anti-fibrotic activity in bleomycin-induced C57BL/6 mouse model of pulmonary fibrosis assessed as increase in E-cadherin level at 60 mg/kg, po pretreated with bleomycin followed by compound addition once daily on day 7 to 14; type: functional, organism-based; conditions: time 7.0 day
[17] = Potency index, ratio of NIF IC50 to test compound IC50 for antiproliferative activity against […] cells; type: functional, NIH3T3
[18] = Toxicity in C57BL/6 mouse assessed as effect on spleen tissue at 30 to 60 mg/kg, po administered once daily; type: organism-based; conditions: in vivo, dose 30-60 mg/kg
[19] = system: Mus musculus; experiment: Anti-fibrotic activity in bleomycin-induced C57BL/6 mouse model of pulmonary fibrosis assessed as reduction in ratio of macrophage cells at 30 mg/kg, po administered once daily by flow cytometry analysis (reference value: 21.51%); type: functional; design: scale not given: the % may be the effect or the level left
[20] = system: NIH3T3; experiment: Inhibition of TGF-beta1 induced NIH-3T3 cells activation assessed as effect on alpha-SMA at 6 uM preincubated with TGF-beta1 for 1 hr followed by compound addition and measured after 24 hrs by DAPI staining based fluorescence microscopic analysis; type: functional, cell-based; conditions: Mus musculus
[21] = system: Mus musculus; experiment: Anti-fibrotic activity in bleomycin-induced C57BL/6 mouse model of pulmonary fibrosis assessed as reduction in ratio of dendritic cells at 60 mg/kg, po pretreated with bleomycin followed by compound addition once daily on day 7 to 14 by flow cytometry analysis (reference value: 19.42%); type: functional; design: scale not given: the % may be the effect or the level left; conditions: time 7 day
[22] = system: NIH3T3; experiment: Antiproliferative activity against NIH3T3 cells at 3.3 uM after 72 hrs by MTT assay; type: functional, Mus musculus
[23] = Aqueous solubility of compound incubated for 1 hr by HPLC analysis; type: physicochemical
[24] = system: Mus musculus; experiment: Anti-fibrotic activity in bleomycin-induced C57BL/6 mouse model of pulmonary fibrosis assessed as reduction in lung pathological features at 30 to 60 mg/kg, po pretreated with bleomycin for 1 day followed by compound addition once daily for 22 days by H and E staining based analysis; type: functional, organism-based; conditions: dose 30-60 mg/kg, time 22.0 day
[25] = system: A549; experiment: Inhibition of TGF-beta1 induced epithelial-mesenchymal transition in human A549 cells assessed as reduction in E-cadherin protein level at 6 uM preincubated with TGF-beta1 for 1 hr followed by compound addition and measured after 24 hrs by immunofluorescence staining based analysis; type: functional, cell-based
[26] = Toxicity in C57BL/6 mouse assessed as effect on heart tissue at 30 to 60 mg/kg, po administered once daily; type: organism-based; conditions: in vivo, dose 30-60 mg/kg
[27] = system: Mus musculus; experiment: Anti-fibrotic activity in bleomycin-induced C57BL/6 mouse model of pulmonary fibrosis assessed as reduction in collagen I level at 60 mg/kg, po pretreated with bleomycin followed by compound addition once daily on day 7 to 14; type: functional, organism-based; conditions: time 7.0 day
[28] = system: Mus musculus; experiment: Anti-fibrotic activity in bleomycin-induced C57BL/6 mouse model of pulmonary fibrosis assessed as reduction in ratio of dendritic cells at 30 mg/kg, po administered once daily by flow cytometry analysis (reference value: 20.21%); type: functional; design: scale not given: the % may be the effect or the level left
[29] = system: NIH3T3; experiment: Inhibition of TGF-beta1 induced NIH-3T3 cells activation assessed as effect on collagen I at 6 uM preincubated with TGF-beta1 for 1 hr followed by compound addition and measured after 24 hrs by DAPI staining based fluorescence microscopic analysis; type: functional, cell-based; conditions: Mus musculus
[30] = target: Signal transducer and activator of transcription 3 (Homo sapiens) (UniProt P40763); experiment: Binding affinity to STAT3 in […] cells assessed as STAT3 stabilization incubated for 1 hr by CETSA; type: cell-based; conditions: NIH3T3
Sequence of Signal transducer and activator of transcription 3 (Homo sapiens) (P40763 whole entry): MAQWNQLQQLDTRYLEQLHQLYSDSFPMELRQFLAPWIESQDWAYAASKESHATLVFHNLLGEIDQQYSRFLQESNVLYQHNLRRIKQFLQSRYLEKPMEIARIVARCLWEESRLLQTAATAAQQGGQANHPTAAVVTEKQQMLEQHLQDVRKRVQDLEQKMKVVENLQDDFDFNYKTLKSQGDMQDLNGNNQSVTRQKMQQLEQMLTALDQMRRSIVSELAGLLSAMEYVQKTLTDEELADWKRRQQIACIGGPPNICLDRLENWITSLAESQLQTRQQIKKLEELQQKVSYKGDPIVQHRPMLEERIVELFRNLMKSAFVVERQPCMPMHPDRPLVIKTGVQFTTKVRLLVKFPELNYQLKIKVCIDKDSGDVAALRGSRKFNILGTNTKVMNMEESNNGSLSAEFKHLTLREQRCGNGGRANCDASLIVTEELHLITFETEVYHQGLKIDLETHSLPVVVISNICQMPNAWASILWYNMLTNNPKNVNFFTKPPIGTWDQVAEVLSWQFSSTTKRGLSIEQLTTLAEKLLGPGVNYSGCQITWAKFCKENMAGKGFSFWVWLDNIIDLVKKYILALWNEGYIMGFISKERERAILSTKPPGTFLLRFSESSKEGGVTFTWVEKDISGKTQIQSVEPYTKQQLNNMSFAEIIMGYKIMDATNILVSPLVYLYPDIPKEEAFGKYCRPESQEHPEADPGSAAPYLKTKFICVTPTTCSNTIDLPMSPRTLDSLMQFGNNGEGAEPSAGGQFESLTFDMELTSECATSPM

[31] = system: Mus musculus; experiment: Anti-fibrotic activity in bleomycin-induced C57BL/6 mouse model of pulmonary fibrosis assessed as reduction in p-STAT3 level at 30 to 60 mg/kg, po pretreated with bleomycin for 1 day followed by compound addition once daily for 22 days by immunohistochemical analysis; type: functional, organism-based; conditions: dose 30-60 mg/kg, time 22.0 day
[32] = Half life in Sprague-Dawley rat at 20 mg/kg, po measured upto 24 hrs; type: ADME, organism-based; conditions: in vivo

## O=C(N/N=C/c1ccc([N+](=O)[O-])s1)c1ccc(OCCCCCCN2CCCCC2)cc1
[1]
  Activity: Active
[2]
  Activity: Active
[3]
  Activity: Dose-Dependent Effect
[4]
  Activity: Active
[5]
  half-life: 0.93 h
[6]
  AUC(0-inf): 1500 ng·h/mL
[7]
  Activity: 100%
[8]
  Activity: Active
[9]
  Cmax: 351 ng/mL
[10]
  Activity: Active
[11]
  Activity: 81.88%
[12]
  Activity: Active
[13]
  Activity: Active
[14]
  inhibition: Active
[15]
  Activity: Active
[16]
  Activity: Active
[17]
  Ratio IC50: 5
[18]
  Activity: Non-Toxic
[19]
  Activity: 4.79%
[20]
  inhibition: Active
[21]
  Activity: 3.84%
[22]
  Activity: 70.43%
[23]
  solubility at 1 h: 390 µg/mL (≈ 850 µM)
[24]
  Activity: Active
[25]
  inhibition: Active
[26]
  Activity: Non-Toxic
[27]
  Activity: Active
[28]
  Activity: 4.59%
[29]
  inhibition: Active
[30]
  Activity: Active
[31]
  Activity: Active
[32]
  half-life: 1.23 h
